In PMC12362618, “Development of the First Small-Molecule Inhibitor Targeting Oncostatin M for Treatment of Breast Cancer” (Journal of Medicinal Chemistry, 2025):

Test system: T47D and MCF-7 human breast cancer cells
Test: MTS cell viability assay
Type: cell-based
Method: Cell viability was assessed using the CellTiter 96 AQueous One Solution Cell Proliferation Assay (Promega, cat. no. G3580), following the manufacturer’s instructions. Briefly, T47D and MCF-7 human breast cancer cells were seeded in 96-well plates at a density of 10,000 cells/well in 100 μL of complete growth medium and allowed to adhere overnight. Cells were then treated with a serial dilution (100 μM to 0.1 nM) of SMI-10B, SMI-10B13, Temozolomide (positive control), or vehicle (DMSO) for 24 h. Following treatment, 20 μL of MTS reagent was added directly to each well, and plates were incubated at 37 °C in a humidified incubator with 5% CO2 and imaged after 1 h of incubation. Absorbance was measured at 490 nm by using a microplate reader. Cell viability was expressed as a percentage relative to the vehicle-treated controls, and experiments were performed in triplicate.

Cn1nnc2c(C(N)=O)ncn2c1=O [Temozolomide, reference compound]
Cytotoxicity / cell viability via MTS assay: moderate toxicity as concentration increases
